Data taken from patent publication US20220152228A1, “COMPOSITIONS AND METHODS FOR RADIOTHERAPY USING CHELATED RADIOTHERAPEUTIC AGENTS AND NON-TARGET TISSUE BLOCKADE” (Washington University, priority 2019, published 2022).
Read-outs that look alike come from different tables or passages of the source.

What was measured:
[1] = system: ^223Ra transport through caco-2 monolayers; assay: Ion-channel ligand library screen for 223Ra flux through caco-2 monolayers; format: cell-based; conditions: 20 μM, BL to AP, normalized to treatment-free flux
Experimental: Caco-2BBe1 (brush border expressing clone of parent Caco-2 line) monolayers, modelling colon tissue, were used. Caco-2 monolayers were utilized for ion-channel ligand library screening (52 compounds) testing epithelial ion-transport activation or blocking of radioactive transfer (see e.g., FIG. 15A). Caco-2 cells were seeded 15 K cells/well in 96 trans-well filter plate and assayed 10 days post-seeding. […] The screening material was sampled at 20 μM per BL well (n=3/molecules).
The monolayers integrity was monitored using a lucifer yellow permeability assay. The fluorescent tracer was loaded in the AP compartment, and fluorescence permeability was read in the BL vial. % Lucifer Yellow Passage (LYp %) was calculated as the percentile ratio of relative Fluorescence Units-535 nm (FU) of the assayed BL over FU of complete transfer in BL well.
Radioactive reading was accomplished sampling AP compartments on Luma plates and reading the dried luminescence using Topcount scintillation counter. […] Averaged drug-assayed measurements (n=3) were normalized to treatment-free flux.

[2] = 223Ra organ distribution in mice pre-treated with ion-channel modulator; format: in vivo, C57/Bl6 mice
Experimental: Healthy male C57/Bl6 mice were randomized received a combination treatment with intraperitoneal injection of Amiloride (inhibitor, red) or NS-1619 (activator, green) or saline (control, grey) followed by a clinical dose of ^223RaCl2 1 h post-drug administration. Radioactive organ distribution was then measured at 15 min, 1 h and 4 h post ^223Ra treatment. […] Comparing bone uptake, as early as 15 min, osseous absorption is was half for the NS-1619-treated group as compared to the amiloride or the control group.
Male C57Bl/6 aged 10 weeks (n=6 per treated group) were administered intraperitoneally Amiloride (12.5 mg/kg-150 uL 2% v/v DMSO) or NS-1619 (1 mg/kg-150 uL 2% v/v DMSO) or saline 1 h prior ^223RaCl2 i.v. administration (3.7 KBq/100 uL buffer). Animals were kept awake between each injection. 15 min; 1 h and 4 h post ^223Ra administration: blood; spleen; kidney; stomach; duodenum; jejunum; ileum; cecum; colon; muscle; fat and bone tibia were harvested, weighed and gamma counted. Gamma counting was conducting utilizing a Perkin Elmer Wizard2 counter with readings of energies set 150-350 KeV, with 10 min reading for each sample. Standard corresponding to 10% of injected activity were measured as well; allowing for the calculation of % Injected activity (% IA) normalized to tissue weight (% IA/g).

[3] = Experimental: The animals were maintained for 20 days with food and water and submitted to blood chemistry analysis (Abaxis Vscan 2) at day 1; 7 and 19 d post-treatment. Weight was monitored for each cohort over 20 days. At the end of the study (day 20 post-treatment), animals were sacrificed and whole limbs and kidneys were harvested for gamma counting and histopathological assessments, respectively.
Kidneys were collected 20 days post-treatment and the tissues were fixed in formalin for 72 h then transferred to saline. Tissues were processed by dehydration, paraffin embedding, and sectioning at 4 μm. Adjacent sections were stained with H&E, PAS and Masson's trichrome.

[4] = aqueous solution, physiological pH, Ba2+ complex; cited from earlier work
[5] = system: human serum proteins; conditions: for activity in early protein fractions (5-15 mL), affinity with proteins: 2 h of incubation in serum proteins
Remark: listed apart in the source
Experimental: Next, the stability of the complex to serum proteins was determined in vitro, simulating the complex biological environment encountered in vivo.
Alternatively, size exclusion chromatography (SEC) was utilized to identify each species in solution. […] Chelated activity % was measured integrating gamma counts of macropa peak (20 mL) over the sum counts of all collected fractions (0-47 mL) (see e.g., FIG. 3E).

[6] = system: human duodenal enteroid monolayers
Experimental: An in vitro patient-derived organoid model of functional gut epithelium was developed by plating human duodenal enteroid monolayers on a permeable trans-well scaffold.
Intestinal cellular models—human duodenal enteroids and caco-2 monolayers—were grown on a trans-well polymeric filter plate divided in a lower and an upper incubation compartments modeling basolateral and apical side of the epithelium, respectively.
Human duodenal enteroids (see e.g., FIG. 13A) were reconstituted and grown from healthy patient-derived cellular crypts tissue samples. Both differentiated (DF) and undifferentiated (UDF) conditions were tested. DF monolayers were induced by removal of Wnt3A and R-spondin factors from the incubation media, as described previously.
DF or UDF duodenal enteroids were set and grown on 24-transwell plates for 2 weeks until cell confluency was reached, leading to closed monolayer membranes. […] Temperature-dependent transport 37° C. versus 4° C. was tested on UDF enteroids (see e.g., FIG. 13B). DF versus UDF enteroids phenotypes transfer were compared, selecting monolayers with similar range of TEER (1200<TEER<1800 D/m) (see e.g., FIG. 13C).

[7] = after administration to mice
Experimental: The whole gastrointestinal tracts from stomach to rectum were rapidly harvested and placed directly on plastic wraps set over autoradiographic phosphor screens for 90 min exposure in the dark. The autoradiographic prints were read on Cyclone Phosphor Imager (Packard), 300 DPI confocal laser stimulation; 16-bit ADC; utilizing FIJI processing with median filter. For FIJI readings of the autoradiographic files, data were converted to 32-bit format utilizing “square and scale n16” plug in. Radioactive signal intensity was translated into dynamic light units (see e.g., FIG. 12A). Signal intensity was plotted over the GI tract length from the stomach (start=0) to the cecum (˜200 mm) comparing various time points (see e.g., FIG. 12B). Results were comprised as well into profiles curves per organ region of interests including: stomach, cecum or the whole intestinal tract (see e.g., FIG. 12C).

[8] = system: colon and duodenum; conditions: mice, uptake in the intestine
Experimental: Animals were fasted and supplemented with Golytely (24 g/350 mL) 2 h prior injections and sacrificed 24 h post administration. Sections (1 cm) of each gastrointestinal region from the duodenum, jejunum, ileum to the colon were rapidly harvested. GI specimen were set onto previously partially solidified OCT gel block, then fully coated with OCT and flash frozen. Gastrointestinal transversal sectioning was conducted utilizing Leica microtome, 10 μm sections. Fresh frozen sections were collected on tape and stored at −20° C.
Gastrointestinal tissue sections were fixed immerging tapes in 10% paraformaldehyde (PFA) for 15 min followed by a washing with PBS 1×. Following fixation, tissues were mounted directly with DAPI and/or TRITC-Phalloidin mounting media under cover slip ready for imaging.
A second fixations was proceeded using 10% PFA and washed with deionized water. Tissues were then reacted using buffer reaction mixtures from Click-iT Plus TUNEL assay. Positive control were conducted, treated similarly with an additional DNAase treatment. Final counterstaining was conducted using Hoechst33342 (1:5000) before mounting taped tissue specimen under cover slip with 30% aqueous glycerol.
For γH2AX staining, tissues were fixed and submitted to blocking serum reagent, 1 h at room temperature. […]

[9] = system: metastatic castration-resistant prostate cancer; conditions: mCRPC patients, vs. 11.9 months in control patients; cited from earlier work
[10] = human serum proteins, 37° C., 12 days

## N=C(N)NC(=O)c1nc(Cl)c(N)nc1N [Amiloride]
[1]
  effect on 223Ra transport through monolayers: inhibitor
[2]; 15 min p.i.
  upper GI radioactive uptake (combined % IA of stomach, duodenum, jejunum): lower radioactive content
[2]; 4 h p.i.
  upper GI radioactive uptake (combined % IA of stomach, duodenum, jejunum): No difference
[2]; 4 h p.i., modulator i.p. 1 h before 223RaCl2
  223Ra sequestration in bone, times higher versus control or NS-1619: over 1.5 times
[2]; combination with 223RaCl2, FIG. 17
  area under the curve of bone uptake versus 223RaCl2 alone: significantly larger
[3]; combination treatment, 20 days following treatment, P=0.0283
  increase in 223Ra bone-homing (whole legs gamma-counted) versus Radium-223 alone: 15%
[3]; day 1 to day 19 post-treatment
  blood chemistry profile, Radium versus Radium/Amiloride cohorts: no profile difference

## O=c1[nH]c2cc(C(F)(F)F)ccc2n1-c1cc(C(F)(F)F)ccc1O [NS-1619]
[1]
  effect on 223Ra transport through monolayers: activator
[2]; 1 h p.i.
  upper GI radioactive uptake (combined % IA of stomach, duodenum, jejunum): significantly higher
[2]; 4 h p.i.
  upper GI radioactive uptake (combined % IA of stomach, duodenum, jejunum): No difference

## O=C([O-])c1cccc(CN2CCOCCOCCN(Cc3cccc(C(=O)[O-])n3)CCOCCOCC2)n1.[Ba+2] [[(Ba)macropa]]
[4]
  stability constant (log K′ML,pH7.4): 10.74

## O=C([O-])c1cccc(CN2CCOCCOCCN(Cc3cccc(C(=O)[O-])n3)CCOCCOCC2)n1.[223Ra+2] [[(^223Ra)macropa]]
[5]
  activity in early protein fractions (5-15 mL), affinity with proteins: no registered activity in the early fractions
[5]; [10]
  223Ra retained (chelated activity) after serum protein challenge: > 90%
  decomplexation after serum protein challenge: 10%
15 min and 24 h p.i., FIG. 4C legend
  fold lower bone uptake than free 223Ra: 10-25 fold
15 min p.i.
  fold lower bone uptake compared to 223RaCl2 in citrate: 10 fold
24 h p.i.
  fold lower bone uptake compared to 223RaCl2 in citrate: 20 fold
24 h p.i., macropa study
  bone uptake: 1.6±0.2 % IA/g
Animal models, compared to bare ion (Xofigo)
  excretion route: quantitatively excreted via renal filtration
Compared with 223RaCl2
  accumulation in the spleen and the gut: prevented accumulation
Early time point (15 min)
  fold higher signal in equal volume of urine (bladder) than 223RaCl2 group: 300 fold
Urine samples of chelator-administered group
  complex status in urine after excretion (SEC): intact

## [Cl][223Ra][Cl] [^223RaCl2, Radium-223 Dichloride]
[6]; basolateral to lumen compartment, P<0.05
  223Ra transport, differentiated versus undifferentiated enteroids: superior capacity to transport
[6]; undifferentiated enteroids, basolateral to apical
  transport of radioactivity, 37° C. versus 4° C.: temperature-dependent active transport
[5]
  activity in early protein fractions (5-15 mL), affinity with proteins: no registered activity in the early fractions
24 h p.i., macropa study
  bone uptake: 22±1 % IA/g
24 h p.i., macropa-β-alanine study
  splenic uptake: 5.52+/−2.3 % IA/g
24 h p.i., macropa-β-alanine study, naive skeletally mature mice
  bone uptake: 9.7±1.66 % IA/g
[7]
  small bowel and stomach accumulation: observed within minutes
[8]
  apoptosis and DNA damage in cells of the colon and duodenum: increased cell apoptosis and DNA damage
[9]
  median survival: 14.9 months

## C/C=C(/C)C(=O)O[C@H]1C(C)=C2[C@H]([C@@H]1OC(=O)CCCCCCC)[C@@](C)(OC(C)=O)C[C@H](OC(=O)CCC)[C@@]1(O)[C@H]2OC(=O)[C@@]1(C)O [thapsigargin]
[1]
  effect on 223Ra transport through monolayers: does not increase transport
